The values below come from publication PMC6377692 (EJNMMI Research, 2019).

Values joined by “and” are separate entries in the source; they are usually repeats but may differ in a detail not shown here. Equal entries are not always repeated. Bridge positions count the residues as written; N and C are the ends. Square brackets hold non-standard residues; d marks the D form. Peptide text beside a SMILES is read from it. * marks the point of attachment. DO3A(CH2CH2SO2CH2CH2) = O=C(O)CN1CCN(CCS(=O)(=O)CC*)CCN(CC(=O)O)CCN(CC(=O)O)CC1; Ala(4-thiazolyl) = N[C@@H](Cc1cscn1)C(=O)O

One series addresses T1, GCG receptor (Rattus norvegicus, UniProt P30082).
T1 construct: tissue Taconic, Denmark (animals); host or cells: organs of living Sprague Dawley rats (liver, spleen, bone marrow and others)
Nature of the series: rat in vivo competition with precursor peptide. Also noted: species or system Sprague Dawley rats. Conditions: 1 mg/kg unlabelled precursor. The protocol:
(§1) A competition study with each respective radiotracer precursor peptide was performed to investigate in vivo selectivity in selected tissues (the blood, heart, lung, liver, pancreas, spleen, kidney, muscle, and bone marrow).
(§2) Animals in each group (n = 4 for each radioligand) were co-injected with 1 mg/kg of either unlabelled DO3A-S01-GCG or -DO3A-S02-GCG peptide to determine the fraction of binding in each tissue which was receptor mediated.
(§3) The time point of euthanasia for each radiotracer was determined based on liver-to-blood ratio obtained from the biodistribution study above, as well as the radionuclide half-life and known radiotracer precursor half-life in blood plasma. Tissue resection and analysis of radioactive uptake in each tissue (expressed as SUV) were performed and analyzed as described above.

Series [1] is described as follows: rat in vivo competition with precursor peptide. Also noted: species or system Sprague Dawley rats. To be noted: male, Sprague Dawley, total radioactivity, tracer alone, 40 min (S01) or 60 min (S02) p.i., S02 baseline stated for liver and spleen, read-out: baseline binding in the liver. How it is done:
as §1, §2, §3

Series [2] can be described thus: in vitro autoradiography, pancreas sections. The class given is binding, cynomolgus monkey (NHP). Conditions: NHP pancreas, 5–10 nM tracer. The protocol:
(§4) Liver and pancreas tissues were collected post-mortem from cynomolgus monkeys (NHP) and Sprague Dawley rats. The use of animal tissues collected post-mortem was approved by the Animal Research Ethical Committee of the Uppsala Region and was performed according to the Uppsala university guidelines on animal experimentation (UFV 2007/724).
(§5) Sections were added in duplicates in each individual assay, and each experiment was repeated at least three times with different batches of radioligand, except for rat sections that were only performed in one assay.
(§6) After incubation, the sections were washed three times in 150 mL PBS. Sections were carefully dried at 37 °C and then exposed against a digital phosphorimager plate overnight together with a 10-μl droplet of radioactive reference (cross-calibrated against a gamma counter) on an absorbent paper attached to an object glass. The phosphor imager plates were scanned using a Cyclone Plus Phosphor imager (Perkin Elmer) at 600 dpi, and the resulting autoradiograms analyzed by ImageJ software (NIH, Bethesda). Pixel values in counts/mm^2 were converted to Bq/mm^2 by the included reference. Bq/mm^2 was further converted to fmol/mm^2 by the known specific radioactivity (fmol/Bq) of each batch of radiopharmaceutical.

Series [3] in a line: rat in vivo distribution (ex vivo organ counting). Also noted: species or system Sprague Dawley rats. To be noted: male, Sprague Dawley, iv, total radioactivity, i.v. How it is done: The in vivo distribution over time was performed to identify the optimal time point for an in vivo blocking study and to calculate the residence time for dosimetry (see detail below). Thus, measurement at more time points was prioritized over repetitions at individual time points.
The animals were kept at a constant temperature (25 °C) and humidity (50%) in a 12-h light-dark cycle. Food and water were provided ad libitum.
Each radiotracer was administered into the tail vein of conscious animals as a bolus in 0.5–0.6 mL of PBS (pH 7.4) as vehicle. […] Given the constraints of the specific radioactivity for each radioligand, the dosing was designed to minimize the given peptide mass (in order to stay below mass effect levels) while still yielding enough radioactive signal for well counter measurements.
At pre-determined post injection time points (5, 10, 20, 40, 60, 90, 120, and 180 min), two animals per each point were euthanized by CO2. Tissues were immediately extracted and weighed, and the radioactive content was measured in the well counter. […] The well counter readings were decay corrected to the time of injection and the mass of the extracted tissues and expressed as Bq/cc. […]

Series [4] is described as follows: human predicted dosimetry (OLINDA/EXM 1.1, from rat biodistribution). How it is done:
The dosimetry calculations were performed as described previously for [^68Ga]Ga-DO3A-VS-Cys^40-Exendin4 [11].
Briefly, animal-derived tissue uptake was normalized to that of human tissues (using tissue weights of whole body adult reference male and female phantoms). The normalized SUVs were then un-decay corrected to their respective time point to reflect the actual radiation burden in each tissue. The tissue residence times (MBq-h/MBq) were assessed by trapezoidal approximation of the un-decay-corrected human SUV biodistribution data. The tissue washout from the last time point (180 min) to infinity was estimated by a single mono-exponential fit.
The estimation of the absorbed dose was performed by the OLINDA/EXM 1.1 software (Vanderbilt University, USA) where the calculations were based on the adult reference male or female phantoms to obtain the intended absorbed dose estimate in humans (ICRP60). The organ-specific doses are reported as mGy/MBq (effective dose as mSv/MBq). The amount of MBq that can be safely administered annually (MBq/year) was calculated for each organ as well as the effective dose, by dividing the limiting dose (10 mSv/year for the effective dose, 150 mGy/year for all tissues except for the red marrow and uterus with 50 mGy/year) by the dose (mGy/MBq or mSv/MBq).

Series [5] relates to GCGR in NHP liver sections. The experiment in a line: in vitro autoradiography, liver sections. The class given is binding, cynomolgus monkey (NHP). How it is done:
as §4, §5, §6

The nature of series [6]: in vitro autoradiography, pancreas sections. The class given is binding. Conditions: human pancreas, 5–10 nM tracer, n = 3. How it is done:
Biopsies from donor human liver and pancreas were obtained from Uppsala Biobank (sample collection 827), and their use was approved by local ethical review board (EPN 2015/401).
as §5, §6

For series [7], the target named is T2, GCGR in rat liver sections (Rattus norvegicus, UniProt P30082).
T2 construct: from tissue; host or cells: frozen Sprague Dawley rat liver sections
The experiment in a line: in vitro autoradiography, liver sections. It counts as binding, Sprague Dawley rat. The protocol:
as §4, §5, §6

For series [8] the following is noted: data not shown.
Series [9] in a line: in vitro autoradiography, pancreas sections. It counts as binding, Sprague Dawley rat. To be noted: rat pancreas, 5–10 nM tracer, n = 1. How it is done:
as §4, §5, §6

Where [10] appears, read: extrapolated from rat biodistribution.

T1 sequence (P30082 27-485): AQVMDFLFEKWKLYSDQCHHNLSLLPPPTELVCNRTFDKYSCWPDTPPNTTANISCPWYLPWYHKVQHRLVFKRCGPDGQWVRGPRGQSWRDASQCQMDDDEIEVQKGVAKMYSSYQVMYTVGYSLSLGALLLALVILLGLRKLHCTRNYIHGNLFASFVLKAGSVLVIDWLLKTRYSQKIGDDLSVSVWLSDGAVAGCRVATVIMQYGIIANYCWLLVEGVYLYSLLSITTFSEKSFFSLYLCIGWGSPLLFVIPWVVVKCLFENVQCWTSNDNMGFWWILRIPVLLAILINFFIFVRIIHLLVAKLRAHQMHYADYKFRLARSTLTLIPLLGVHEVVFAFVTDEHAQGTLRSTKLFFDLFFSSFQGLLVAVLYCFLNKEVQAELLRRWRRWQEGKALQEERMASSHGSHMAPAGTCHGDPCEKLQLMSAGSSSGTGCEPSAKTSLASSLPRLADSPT
T2 sequence (P30082 27-485): as above

Regarding `CC[C@H](C)[C@H](NC(=O)[C@H](Cc1ccccc1)NC(=O)[C@H](CCC(=O)O)NC(=O)[C@@H]1CCCCNC(=O)CC[C@H](NC(=O)[C@H](CC(=O)O)NC(=O)[C@H](CC(C)C)NC(=O)[C@H](CCC(N)=O)NC(=O)[C@H](CCCCN)NC(=O)[C@H](CO)NC(=O)[C@H](Cc2ccc(O)cc2)NC(=O)[C@H](CC(=O)O)NC(=O)[C@H](CO)NC(=O)[C@@H](NC(=O)[C@H](Cc2ccccc2)NC(=O)[C@@H](NC(=O)CNC(=O)[C@H](CCC(N)=O)NC(=O)[C@@H](CO)NC(=O)[C@@H](N)Cc2cscn2)[C@@H](C)O)[C@@H](C)O)C(=O)N[C@@H](CCC(N)=O)C(=O)N[C@@H](CCCNC(=N)N)C(=O)N[C@@H](C)C(=O)N1)C(=O)N[C@@H](CCC(=O)O)C(=O)N[C@@H](Cc1c[nH]c2ccccc12)C(=O)N[C@@H](CC(C)C)C(=O)N[C@@H](CC(C)C)C(=O)N[C@@H](C)C(=O)N[C@H](C(=O)NCC(=O)N1CCC[C@H]1C(=O)N[C@@H](CCC(=O)O)C(=O)N[C@@H](CO)C(=O)NCC(=O)N[C@@H](C)C(=O)N1CCC[C@H]1C(=O)N1CCC[C@H]1C(=O)N1CCC[C@H]1C(=O)N[C@@H](CO)C(=O)N[C@@H](CSCCS(=O)(=O)CCN1CCN(CC(=O)O)CCN(CC(=O)O)CCN(CC(=O)O)CC1)C(N)=O)[C@@H](C)O` [[^68Ga]Ga-DO3A-S01-GCG, metal not drawn] (H-[Ala(4-thiazolyl)][dS]QGTFTSDYSKQLDEQRAKEFIEWLLATGPESGAPPPSC(DO3A(CH2CH2SO2CH2CH2))-NH2; lactam 16-20), on GCG receptor (40 min (S01) or 60 min (S02) p.i., n = 4 per group), the “decrease of binding in the spleen by co-injection of precursor peptide” value is listed as above 80%. Besides, the “decrease of binding in the liver by co-injection of precursor peptide” value on GCG receptor (40 min (S01) or 60 min (S02) p.i., n = 4 per group, 1 mg/kg) was > 80% and 84%. Further, the “effect of co-injection of precursor peptide on kidney uptake” value on GCG receptor (40 min p.i.) is reported as “not affected”. Further, at GCG receptor (40 min p.i., n = 4 per group), the “decrease of binding in the bone marrow by co-injection of precursor peptide” value was above 80%. The SUV in [1] was above 2 SUV; in series [3] (liver, 3.6 ug/kg, after 20 min, read-out: uptake in the liver, plateau), 3 SUV. For the same compound, the “binding in pancreas sections” value in [2], in [6] and in series [9] was “Only background binding” in each case. In addition, in series [3] (liver/blood, after 90 min), the tissue to tissue ratio was above 30. In [4] (setting [10]), the “human predicted absorbed dose, kidneys” value is listed as 0.53 mGy/MBq. Further, the “human predicted whole body effective dose” value in series [4] (setting [10]) was 20.2 μSv/MBq. Further, in series [4] (limit 10 mSv/year), the “calculated maximal annual dosing, limited by whole body effective dose” value is recorded as 495 MBq. Moreover, the “calculated maximal annual dosing, by bone marrow absorbed dose” value in series [4] (limit 50 mGy/year) is recorded as above 2000 MBq. The “calculated maximal annual dosing, limited by kidney dose” value in series [4] (limit 150 mGy/year) is 278 MBq. Also, the “effect of GLP-1 in excess on tracer binding to liver sections” value is given as “did not induce inhibition” in series [5] (1 μM GLP-1) and “did not induce inhibition” in [7] (1 μM GLP-1, n = 1). For the same compound, the “inhibition of tracer binding to liver sections by co-incubation with own precursor peptide” value in [5] (10 μM precursor) is on record as “did not increase the degree of inhibition”; in series [7] (10 μM precursor, n = 1) it was “did not increase the degree of inhibition”. In series [5] (5–10 nM tracer, 10 μM GCG, 60 min RT, n = 3 (S01), n = 4 (S02)), the “inhibition of tracer binding to liver sections by co-incubation with GCG” value is on record as above 60%. In addition, the exposure in series [8] worked out at 1570 ng·h/mL. For the same compound, the “plasma t½” value in series [8] stood at 15 min.
